Test results published in patent US11566017B2, “Dihydroquinazolinone compound or pharmacologically acceptable salt, and cell growth inhibitor” (RIKEN, priority 2017, dated 2023).

Assays:
tankyrase 1 (TNKS1) = molecular target: T1, tankyrase 1 (TNKS1) (Homo sapiens, UniProt O95271); assay: Tankyrase inhibitory activity test (ELISA, auto-poly(ADP-ribosyl)ation), tankyrase 1; assay type: biochemical; conditions: Flag tagged tankyrase 1 (1,024-1,327aa, SAM+PARP); read-out: TNKS1 (inhibitory activity against tankyrase 1, IC50)
T1 construct: tankyrase 1 (1,024-1,327aa, SAM+PARP); made in house; host or cells: cell-free protein expression system
T1 sequence (O95271 1024-1327): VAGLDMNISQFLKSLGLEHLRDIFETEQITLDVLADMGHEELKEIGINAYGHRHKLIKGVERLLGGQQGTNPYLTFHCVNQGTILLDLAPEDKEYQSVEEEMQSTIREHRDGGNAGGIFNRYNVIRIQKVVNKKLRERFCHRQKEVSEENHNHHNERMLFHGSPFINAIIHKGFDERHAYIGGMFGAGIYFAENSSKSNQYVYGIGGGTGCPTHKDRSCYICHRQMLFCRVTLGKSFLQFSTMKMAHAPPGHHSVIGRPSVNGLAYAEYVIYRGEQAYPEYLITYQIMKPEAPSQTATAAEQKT
Procedure: (§1) The enzymatic activity of tankyrase 1 and the enzymatic activity of tankyrase 2 were measured by the ELISA method based on assessment of auto-poly(ADP-ribosyl)ation to evaluate the tankyrase inhibitory activity of the compound prepared in each of Examples (test compound) (inhibitory activity against tankyrase 1 (TNKS1) and inhibitory activity against tankyrase 2 (TNKS2)). First, Flag tagged tankyrase 1 (1,024-1,327aa, SAM+PARP) and tankyrase 2 (613-1,116aa, ANK5+SAM+PARP) were synthesized with a cell-free protein expression system, and diluted with a Tris buffer solution (50 mM Tris-HCl (pH 8.0), 150 mM NaCl, 10% glycerol). 50 μL of the diluted tankyrase 1 or tankyrase 2 was added to a plate with an anti-FLAG M2 monoclonal antibody immobilized thereon (Anti-FLAG High-Sensitivity M2-Coated Plate) (Sigma-Aldrich), and the plate was left standing overnight at 4° C. Thereafter, the plate was washed four times with a PBS (PBST) buffer containing 0.1% Triton X-100. For Example 84, the Anti-FLAG High-Sensitivity M2-Coated Plate was replaced by an immunoplate (Thermo Fisher Scientific), tankyrase 1 or tankyrase 2 was immobilized on the immunoplate, and the immunoplate was then blocked with Blocking One (nacalai tesque), then washed with a PBS (PBST) buffer, and used as the following plate.
(§2) Subsequently, the test compound diluted with an assay buffer (50 mM Tris-HCl (pH 8.0), 4 mM MgCl2, 0.2 mM DTT) (DMSO was used as a control) was added to each well of the plate, and the plate was left standing at room temperature for 10 minutes. Thereafter, a biotin-labeled NAD solution (225 μM NAD, 25 μM 6-Biotin-17-NAD (Travigen, Inc.)) was added and mixed as a donor substrate, and the mixture was reacted at 30° C. for 45 minutes. To blank wells was added distilled water instead of the biotin-labeled NAD solution. After the reaction, the plate was washed with a PBST buffer four times. Thereafter, HRP (horseradish peroxidase)-labeled streptavidin (Travigen, Inc.) was diluted with a PBS buffer by 1,000 times, and added to each well, and the mixture was reacted at room temperature for 20 minutes. The plate was washed with a PBST buffer four times, a chemiluminescent substrate solution TACS-Sapphire (Travigen, Inc.) was then added to each well, the mixture was reacted at room temperature for 20 minutes, and the chemiluminescence intensity was measured using a chemiluminescence measuring apparatus. For Example 84, the streptavidin was diluted by 5,000 times, the chemiluminescent substrate solution TACS-Sapphire was replaced by an ELISA POD substrate TMB solution easy (nacalai tesque), the mixture was reacted at room temperature for 30 minutes, and the chemiluminescence intensity was measured using a chemiluminescence measuring apparatus.
(§3) The residual enzymatic activity in the presence of the test compound was determined from the following expression. On the basis of the residual enzymatic activity at each of multiple concentrations of the test compound, the enzyme inhibitory activity was calculated in terms of a 50%-inhibition concentration (IC50 value) using data analysis software Origin (LightStone Corp.). Residual activity (%)={(chemiluminescence intensity with test compound added)−(chemiluminescence intensity of blank)}/{(chemiluminescence intensity of control)−(chemiluminescence intensity of blank)}

tankyrase 2 (TNKS2) = molecular target: T2, tankyrase 2 (TNKS2) (Homo sapiens, UniProt Q9H2K2); assay: Tankyrase inhibitory activity test (ELISA, auto-poly(ADP-ribosyl)ation), tankyrase 2; assay type: biochemical; conditions: Flag tagged tankyrase 2 (613-1,116aa, ANK5+SAM+PARP); read-out: TNKS2 (inhibitory activity against tankyrase 2, IC50)
T2 construct: tankyrase 2 (613-1,116aa, ANK5+SAM+PARP); made in house; host or cells: cell-free protein expression system
Procedure: as §1, §2, §3

[1] = tested on: human colorectal cancer cell line COLO-320DM; assay: Cell proliferation inhibitory activity test (Celltiter-Glo); assay type: cell-based; conditions: COLO-320DM cells, 96 hours
Procedure: The cell proliferation inhibitory activity of the compound, which had been prepared in each of Examples, against the human colorectal cancer cell line COLO-320DM was evaluated by Celltiter-Glo Luminescent Cell Viability Assay (Promega Corporation; G7573). COLO-320DM cells were cultured in RPMI-1640 medium containing 2 mM glutamine (Wako Pure Chemical Industries, Ltd; 189-02025) supplemented with 10% fetal bovine serum. The cultured cells were washed with PBS, and then dissociated with trypsin/EDTA, and a cell solution with 3×10^4 cells/mL was prepared.
Subsequently, the cell solution was seeded in a 96-well microplate (Thermo/Nunc Company; 136101) in an amount of 70 μL per well, and cultured overnight under the condition of 37° C. and 5% CO2. Next day, a test compound solution obtained by diluting the test compound (DMSO solution) with a cell culture medium (final concentration of DMSO was 1%) was added in an amount of 10 μL per well, and the mixture was reacted under the condition of 37° C. and 5% CO2 for 96 hours (a 1% DMSO solution was used as a control). Thereafter, a Celltiter-GloLuminescent Cell Viability Assay reagent (Promega Corporation; G7573) was added in an amount of 80 μL per well, the mixture was stirred with a shaker for 2 minutes while light was blocked with an aluminum foil, and the mixture was incubated at room temperature for 10 minutes.
Thereafter, a luminescence signal was measured with a luminometer (Biotech Company; Synergy). The ratio of cell proliferation in each compound addition group to cell proliferation in a control group containing no test compound solution, where cell proliferation in the control group is 100%, was calculated and the value of a compound concentration necessary for suppressing the amount of residual cells to 50% of that in the control (GI50) was calculated as the cytostatic activity. […] An unevaluated test compound was designated as “NT”.

IC50 (tankyrase 1 (TNKS1))	IC50 (tankyrase 2 (TNKS2))	GI50 [1]	Compound
5 to 20 nM	< 5 nM	1000 to 10000 nM	COc1ccc(-c2c[nH]nc2C2NC(=O)c3ccccc3N2)cc1 (stereo not drawn) [Example 85, 2-[4-(4-Methoxyphenyl)-1H-pyrazol-3-yl]-2,3-dihydro-1H-quinazolin-4-one]
20 to 50 nM	20 to 50 nM	≥ 10000 nM	CCOC(=O)Cc1ccc(-c2ccc(-c3[nH]ncc3C3NC(=O)c4ccccc4N3C)cc2)cc1 (stereo not drawn) [Example 36, Ethyl 2-[4-[4-[4-(1-methyl-4-oxo-2,3-dihydroquinazolin-2-yl)-1H-pyrazol-5-yl]phenyl]phenyl]acetate]
20 to 50 nM	20 to 50 nM	1000 to 10000 nM	CN(C)c1ccc(-c2ccc(-c3n[nH]cc3C3NC(=O)c4ccccc4N3C)cc2)cc1 (stereo not drawn) [Example 34, 2-[5-[4-[4-(Dimethylamino)phenyl]phenyl]-1H-pyrazol-4-yl]-1-methyl-2,3-dihydroquinazolin-4-one]
20 to 50 nM	20 to 50 nM	≥ 10000 nM	CN(C)c1ccc(-c2cccc(-c3n[nH]cc3C3NC(=O)c4ccccc4N3C)c2)cc1 (stereo not drawn) [Example 35, 2-[5-[3-[4-(Dimethylamino)phenyl]phenyl]-1H-pyrazol-4-yl]-1-methyl-2,3-dihydroquinazolin-4-one]
5 to 20 nM	5 to 20 nM	≥ 10000 nM	CN1CCN(c2ccc(-c3cccc(-c4n[nH]nc4C4NC(=O)c5ccccc5N4C)c3)cc2)CC1 (stereo not drawn) [Example 61, 1-Methyl-2-[5-[3-[4-(4-methylpiperazin-1-yl)phenyl]phenyl]-2H-1,2,3-triazol-4-yl]-2,3-dihydroquinazolin-4-one]
20 to 50 nM	5 to 20 nM	≥ 10000 nM	CN1c2ccccc2C(=O)NC1c1n[nH]nc1-c1ccc(OCC(F)(F)F)cc1 (stereo not drawn) [Example 64, 1-Methyl-2-[4-[4-(2,2,2-trifluoroethoxy)phenyl]-2H-1,2,3-triazol-5-yl]-2,3-dihydroquinazolin-4-one]
5 to 20 nM	5 to 20 nM	< 1000 nM	[2H]C([2H])([2H])Oc1ccc(-c2n[nH]nc2C2NC(=O)c3cccc(C)c3N2)cc1 (stereo not drawn) [Example 77]
5 to 20 nM	5 to 20 nM	1000 to 10000 nM	CN1c2ccccc2C(=O)NC1c1c[nH]nc1-c1ccc(-c2ccc(N3CCOCC3)cc2)cc1 (stereo not drawn) [Example 29]
20 to 50 nM	20 to 50 nM	≥ 10000 nM	CN1c2ccccc2C(=O)NC1c1c[nH]nc1-c1ccc(-c2ccnc3ccccc23)cc1 (stereo not drawn) [Example 40, 1-Methyl-2-[3-(4-quinolin-4-ylphenyl)-1H-pyrazol-4-yl]-2,3-dihydroquinazolin-4-one]
20 to 50 nM	5 to 20 nM	≥ 10000 nM	COc1c(F)cc(-c2n[nH]cc2C2NC(=O)c3ccccc3N2C)cc1F (stereo not drawn) [Example 49, 2-[5-(3,5-Difluoro-4-methoxyphenyl)-1H-pyrazol-4-yl]-1-methyl-2,3-dihydroquinazolin-4-one]
5 to 20 nM	5 to 20 nM	≥ 10000 nM	COc1ccc(-c2[nH]ncc2C2NC(=O)c3cccc(C)c3N2)cc1 (stereo not drawn) [Example 50, 2-[5-(4-Methoxyphenyl)-1H-pyrazol-4-yl]-8-methyl-2,3-dihydro-1H-quinazolin-4-one]
5 to 20 nM	5 to 20 nM	≥ 10000 nM	CN1c2ccccc2C(=O)NC1c1c[nH]nc1-c1ccc(C#N)cc1 (stereo not drawn) [Example 31, 4-[4-(1-Methyl-4-oxo-2,3-dihydroquinazolin-2-yl)-1H-pyrazol-3-yl]benzonitrile]
20 to 50 nM	20 to 50 nM	1000 to 10000 nM	Cc1cccc2c1NC(c1cn[nH]c1-c1ccc(-c3ccc(N4CCN(C)CC4)cc3)cc1)NC2=O (stereo not drawn) [Example 51, 8-Methyl-2-[5-[4-[4-(4-methylpiperazin-1-yl)phenyl]phenyl]-1H-pyrazol-4-yl]-2,3-dihydro-1H-quinazolin-4-one]
20 to 50 nM	5 to 20 nM	1000 to 10000 nM	Cc1cccc2c1NC(c1n[nH]nc1-c1ccc(OC(C)C)cc1)NC2=O (stereo not drawn) [Example 76, 8-Methyl-2-[5-(4-propan-2-yloxyphenyl)-2H-1,2,3-triazol-4-yl]-2,3-dihydro-1H-quinazolin-4-one]
5 to 20 nM	5 to 20 nM	≥ 10000 nM	COc1ccc(-c2n[nH]nc2C2NC(=O)c3cccc(O)c3N2)cc1 (stereo not drawn) [Example 67, 8-Hydroxy-2-[5-(4-methoxyphenyl)-2H-1,2,3-triazol-4-yl]-2,3-dihydro-1H-quinazolin-4-one]
5 to 20 nM	5 to 20 nM	1000 to 10000 nM	CN1c2ccccc2C(=O)NC1c1c[nH]nc1-c1cccc(-c2ccc(N3CCOCC3)cc2)c1 (stereo not drawn) [Example 30]
5 to 20 nM	5 to 20 nM	≥ 10000 nM	COc1ccc(-c2n[nH]cc2C2NC(=O)c3ccccc3N2)cc1 (stereo not drawn) [Example 82, 2-[5-(4-Methoxyphenyl)-1H-pyrazol-4-yl]-2,3-dihydro-1H-quinazolin-4-one]
20 to 50 nM	< 5 nM	≥ 10000 nM	CN1c2ccccc2C(=O)NC1c1c[nH]nc1-c1ccc(Oc2ccccc2)cc1 (stereo not drawn) [Example 18, 1-Methyl-2-[3-(4-phenoxyphenyl)-1H-pyrazol-4-yl]-2,3-dihydroquinazolin-4-one]
5 to 20 nM	20 to 50 nM	≥ 10000 nM	CN1CCN(Cc2ccc(-c3ccc(-c4n[nH]cc4C4NC(=O)c5ccccc5N4C)cc3)cc2)CC1 (stereo not drawn) [Example 25, 1-Methyl-2-[5-[4-[4-[(4-methylpiperazin-1-yl)methyl]phenyl]phenyl]-1H-pyrazol-4-yl]-2,3-dihydroquinazolin-4-one]
< 5 nM	< 5 nM		CN1c2ccccc2C(=O)NC1c1c[nH]nc1-c1ccc(C(=O)O)cc1 (stereo not drawn) [Example 2, 4-[4-(1-Methyl-4-oxo-2,3-dihydroquinazolin-2-yl)-1H-pyrazol-5-yl]benzoic Acid]
20 to 50 nM	20 to 50 nM		O=C1NC(c2c[nH]nc2-c2ccccc2)Nc2ccccc21 (stereo not drawn) [Example 9, 2-(3-Phenyl-1H-pyrazol-4-yl)-2,3-dihydro-1H-quinazolin-4-one]
20 to 50 nM	5 to 20 nM		COC(=O)c1ccc(-c2n[nH]cc2C2NC(=O)c3ccccc3N2C)cc1 (stereo not drawn) [Example 1, Methyl 4-[4-(1-methyl-4-oxo-2,3-dihydroquinazolin-2-yl)-1H-pyrazol-5-yl]benzoate]
